Measured values reported in PubChem BioAssay AID608 (Sanford-Burnham Center for Chemical Genomics, 2007).
Activity calls are given as the source filed them. No rule for the calls is given here.

The compounds below were run against Peptidyl-prolyl cis-trans isomerase FKBP1A (Homo sapiens) (UniProt P62942) (assay: FKBP12 binders, biophysical, NMR detection (AID 608)). Details: NMR binding, purified FKBP12.
Chain of Peptidyl-prolyl cis-trans isomerase FKBP1A (Homo sapiens) (P62942 whole entry, looked up): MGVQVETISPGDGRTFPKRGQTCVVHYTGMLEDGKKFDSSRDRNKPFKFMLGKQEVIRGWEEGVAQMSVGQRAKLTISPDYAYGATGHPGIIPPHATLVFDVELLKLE

Row | SMILES | Kd
1 | Cc1nn(CC(=O)Nc2ccccc2)c(=O)c2ccccc12 | > 4 mM (inactive)
2 | COC(=O)Cc1cc(=O)n(-c2ccccc2)[nH]1 | > 4 mM (inactive)
3 | Cc1ccc(Cl)cc1NS(=O)(=O)N1CCOCC1 | > 4 mM (inactive)
4 | CNC(=O)n1ccc(C(=O)N2CCCCC2)n1 | > 4 mM (inactive)
5 | COc1cc([C@@H]2c3cc4c(cc3[C@H](OC(C)=O)[C@H]3COC(=O)[C@H]23)OCO4)cc(OC)c1OC | > 4 mM (inactive)
6 | CC1Cc2nc(SCC(N)=O)n(C)c(=O)c2S1 (centres undefined) | > 4 mM (inactive)
7 | NCc1csc(-c2ccccc2)n1 | > 4 mM (inactive)
8 | Cc1cc(C)n(-c2ccc(N)cc2)n1 | > 4 mM (inactive)
9 | O=C(NCc1cccnc1)c1ccccn1 | > 4 mM (inactive)
10 | COc1c(C(C)C)oc2cc3oc(=O)ccc3cc12 | > 4 mM (inactive)
11 | O=C1CCc2ccccc2CN1 | > 4 mM (inactive)
12 | NC(=O)c1ccsc1NC(=O)C1=COCCO1 | > 4 mM (inactive)
13 | O=C1CCC(=O)N1CN1CCOCC1 | > 4 mM (inactive)
14 | CC(=O)Nc1cccc(Cn2cccn2)c1 | > 4 mM (inactive)
15 | NC(=O)CC1Nc2cccc3cccc(c23)NC1=O (centres undefined) | > 4 mM (inactive)
16 | CCOC(=O)c1c(C)cc(OC)cc1O | > 4 mM (inactive)
17 | O=C(O)c1ccc(N2CCCCC2)cc1 | > 4 mM (inactive)
18 | COc1cc(O)c(C(=O)c2ccccc2)cc1O | > 4 mM (inactive)
19 | COc1cc(S(=O)(=O)N(C)C)ccc1F | > 4 mM (inactive)
20 | Cc1ccccc1C(=O)Nc1cccc(N)c1 | > 4 mM (inactive)
21 | O=C(NCc1cccs1)c1ccncc1 | > 4 mM (inactive)
22 | Cc1csc(NC(=O)c2cccs2)n1 | > 4 mM (inactive)
23 | COC(=O)/C(C)=C\CC12OC(C)(C)C3CC(C=C4C(=O)c5c(OC)c6c(c(CC=C(C)C)c5OC431)OC(C)(CCC=C(C)C)C=C6)C2=O (centres undefined) | > 4 mM (inactive)
24 | CCNC(=S)N1CCCC(C(N)=O)C1 (centres undefined) | > 4 mM (inactive)

Row | SMILES | Kd
25 | Cc1ccc(C(=O)n2cnnc2N)cc1C | > 4 mM (inactive)
26 | NC(=O)CSc1ncnc2ccccc12 | > 4 mM (inactive)
27 | Cc1cc(C(=O)Nc2cccnc2)no1 | > 4 mM (inactive)
28 | NC12CC3CC(C1)CC(C(=O)O)(C3)C2 | > 4 mM (inactive)
29 | CCC(CCC(C)[C@H]1CCC2C3CC=C4C[C@@H](O)CC[C@]4(C)C3CC[C@@]21C)C(C)C (some centres undefined) | > 4 mM (inactive)
30 | Cc1ccc2c(c1)CC[C@H]1CC(=O)CC[C@]21C | > 4 mM (inactive)
31 | COc1ccc(C(=O)/C=C2\NC(=S)NC2=O)cc1 | > 4 mM (inactive)
32 | Oc1cnc2ccccc2c1CN1CCOCC1 | > 4 mM (inactive)
33 | Cc1ccc(-c2c(C)n([O-])c(C)c(C)[n+]2=O)cc1 | > 4 mM (inactive)
34 | O=c1c2ccccc2[nH]c2ncccc12 | > 4 mM (inactive)
35 | O=C(O)c1ccc(CSc2ncn[nH]2)cc1 | > 4 mM (inactive)
36 | COCc1nc(-c2cc(Br)ccc2OC)no1 | > 4 mM (inactive)
37 | CC1=NN2C(=N)CC(=O)N=C2S1 | > 4 mM (inactive)
38 | CCN1C(=O)N(CO)C2C1N(C)C(=O)N2C (centres undefined) | > 4 mM (inactive)
39 | CC1=C2C(O)C(=O)OC3CC4C(C)(C)C(=O)C=C[C@]4(C)C(CC1)[C@]23C (some centres undefined) | > 4 mM (inactive)
40 | Cc1ccc(N)nc1 | > 4 mM (inactive)
41 | CC(=O)O[C@@H]1CC2C(C)(C)C(=O)[C@@H]3O[C@@H]3[C@]2(C)C2CC[C@]3(C)C(=CC(=O)O[C@H]3c3ccoc3)[C@@]21C (some centres undefined) | > 4 mM (inactive)
42 | Cc1nn(-c2ccccc2)nc1C(N)=O | > 4 mM (inactive)
43 | Cc1c(O)c(O)cc2c1CC=C1[C@@]2(C)CC[C@@]2(C)C3C[C@](C)(C(=O)O)CC[C@]3(C)CC[C@]12C (some centres undefined) | > 4 mM (inactive)
44 | O=S(=O)(Nc1ccc2c(c1)OCCO2)c1cccs1 | > 4 mM (inactive)
45 | O=c1cc(O)nc(SCc2ccccc2)[nH]1 | > 4 mM (inactive)
46 | O=C(c1ccccc1F)N1CCN(c2ccccc2)CC1 | > 4 mM (inactive)
47 | Oc1ccccc1-c1cc(C(F)(F)F)[nH]n1 | > 4 mM (inactive)
48 | CC(=O)n1nc(-c2cccnc2)nc1N | > 4 mM (inactive)

Row | SMILES | Kd
49 | CSc1nnc2ccc(-c3cccnc3)nn12 | > 4 mM (inactive)
50 | O=C(Cc1cccs1)Nc1ccon1 | > 4 mM (inactive)
51 | Cc1c(C(=O)Nc2ccccc2)sc(N)c1C(N)=O | > 4 mM (inactive)
52 | Nc1cc(C(F)(F)F)ccc1N1CCOCC1 | > 4 mM (inactive)
53 | NC(=O)c1ccc2c(c1)OCO2 | > 4 mM (inactive)
54 | CS(=O)(=O)N1CCN(C(=O)c2ccccc2)C1 | > 4 mM (inactive)
55 | N#Cc1nc(-c2cccs2)oc1N1CCOCC1 | > 4 mM (inactive)
56 | CC12CNCC(C)(CNC1)C2O (centres undefined) | > 4 mM (inactive)
57 | Cc1nc(N)sc1C(=O)N/N=C/c1ccncc1 | > 4 mM (inactive)
58 | COC(=O)C[C@@H]1C2(C)C(=O)[C@@H](CC3C2CC[C@]2(C)C3CC(=O)O[C@H]2c2ccoc2)[C@H](OC(C)=O)C1(C)C (some centres undefined) | > 4 mM (inactive)
59 | Cc1cc(C)n2nc(N)nc2n1 | > 4 mM (inactive)
60 | O=C1CNC(=O)N1Cc1ccc(F)cc1 | > 4 mM (inactive)
61 | O=c1ccc2cc(O[C@@H]3O[C@H](CO)[C@@H](O)[C@H](O)[C@H]3O)c(O)cc2o1 | > 4 mM (inactive)
62 | CC(C)Oc1ccc(C2CC(=O)NNC2=O)cc1 (centres undefined) | > 4 mM (inactive)
63 | C=Cc1c(C)c2cc3[nH]c(cc4nc(cc5nc(cc1[nH]2)C(C)=C5CCC(=O)O)C(CCC(=O)O)=C4C)c(C)c3C=C | > 4 mM (inactive)
64 | O=C(O)C1CSC2(CCCCC2)N1 (centres undefined) | > 4 mM (inactive)
65 | Cc1nc2nc(COc3ccccc3)nn2c(C)c1Cl | > 4 mM (inactive)
66 | O=c1[nH]cnc2nn(-c3ccccc3)nc12 | > 4 mM (inactive)
67 | Cc1occc1C(=O)NC1CCN(C)CC1 | > 4 mM (inactive)
68 | Cc1ccccc1-n1c(N)cc(=O)[nH]c1=S | > 4 mM (inactive)
69 | COc1ccc(NS(=O)(=O)c2ccc(N)cc2)nn1 | > 4 mM (inactive)
70 | O=C1CCNc2cc3ccccc3cc21 | > 4 mM (inactive)
71 | N[C@@H](Cc1ccc(O)c(O)c1)C(=O)O | > 4 mM (inactive)
72 | O=C(Nc1ccon1)c1ccc(Br)o1 | > 4 mM (inactive)

Row | SMILES | Kd
73 | COC(=O)C1CCc2ccccc2N1 (centres undefined) | > 4 mM (inactive)
74 | Cn1cnc2cc(NC(=O)c3ccco3)ccc21 | > 4 mM (inactive)
75 | Cc1cc(F)c(F)c(C(=O)NC2CC2)c1Cl | > 4 mM (inactive)
76 | Cc1oc(-c2ccccc2)nc1CC(=O)O | > 4 mM (inactive)
77 | C[n+]1cc2c3c(ccc2c2ccc4cc5c(cc4c21)OCO5)OCO3 | > 4 mM (inactive)
78 | CSc1nc(NC(C)C)nc(N2CCOCC2)n1 | > 4 mM (inactive)
79 | CCNC(=O)CC1Nc2ccccc2NC1=O (centres undefined) | > 4 mM (inactive)
80 | C=C1C(N)CC2CC1C2(C)C (centres undefined) | > 4 mM (inactive)
81 | COc1cc(C/C=C/c2ccccc2)c(OC)cc1O | > 4 mM (inactive)
82 | Cc1noc(C)c1C(=O)Nc1ccccc1-c1ccccc1 | > 4 mM (inactive)
83 | CN(C)C(=O)Oc1cccc(-c2nnco2)c1 | > 4 mM (inactive)
84 | O=C(O)C1CSC(c2ccco2)N1 (centres undefined) | > 4 mM (inactive)
85 | COc1cc(O)c2c(c1)C(=O)c1cc(C)cc(O)c1C2=O | > 4 mM (inactive)
86 | CSc1nc(=O)[nH]c2c1CCC2 | > 4 mM (inactive)
87 | CN1C(=O)c2ccc(C(=O)NCc3ccccc3)cc2C1=O | > 4 mM (inactive)
88 | COc1ccc(-c2cc(=O)c3ccccc3o2)cc1OC | > 4 mM (inactive)
89 | CNC(=O)Nc1cccc(C(F)(F)F)c1 | > 4 mM (inactive)
90 | O=C(O)c1cn(-c2ccccc2)nc1-c1ccncc1 | > 4 mM (inactive)
91 | O=C1CSC(=Nc2cccc(C(=O)O)c2)N1 | > 4 mM (inactive)
92 | C/C=C/C=N/NC(=O)c1ccc(=O)n(C)c1 | > 4 mM (inactive)
93 | COC(=O)[C@@H]1OC(=O)C2OC23[C@@]1(C)CCC1[C@]2(C)C(C[C@@H](O)[C@]13C)C(C)(C)[C@H](OC(C)=O)C[C@@H]2OC(C)=O (some centres undefined) | > 4 mM (inactive)
94 | NCc1ccc2sccc2c1 | > 4 mM (inactive)
95 | O=S(=O)(CCN1CCCC1)c1ccccc1 | > 4 mM (inactive)
96 | NC(CC(=O)O)c1ccccc1 (centres undefined) | > 4 mM (inactive)

Row | SMILES | Kd
97 | CCNCC(O)c1ccc([N+](=O)[O-])cc1 (centres undefined) | > 4 mM (inactive)
98 | O=C(c1ccncc1)N1CCN(C(=O)c2ccncc2)CC1 | > 4 mM (inactive)
99 | CC(=O)NC(O)C(=O)c1ccccc1 (centres undefined) | > 4 mM (inactive)
100 | OC12CC3CC(C1)C1(NCCS1)C(C3)C2 (centres undefined) | > 4 mM (inactive)
101 | c1ccc(-n2nnnc2Oc2cccc3cccnc23)cc1 | > 4 mM (inactive)
102 | c1ccc(-n2cnnc2)nc1 | > 4 mM (inactive)
103 | O=C(Nc1ccccc1)N1CCOCC1 | > 4 mM (inactive)
104 | Nc1ncccc1OCc1ccccc1 | > 4 mM (inactive)
105 | O=C(O)CCC(=O)NCc1cccnc1 | > 4 mM (inactive)
106 | O=C1CCC(=O)N1c1ccc(O)cc1 | > 4 mM (inactive)
107 | Cc1cc(C(=O)N2CCN(c3ccccn3)CC2)c(C)o1 | > 4 mM (inactive)
108 | Cc1cc2c(=O)n(C)c(SCC(N)=O)nc2s1 | > 4 mM (inactive)
109 | O=c1/c(=C/c2ccccc2F)sc2ncnn12 | > 4 mM (inactive)
110 | c1ccc2c(c1)nnn2C1CCNCC1 | > 4 mM (inactive)
111 | Cc1cc(C)nc(/N=C(\N)N2CCc3ccccc32)n1 | > 4 mM (inactive)
112 | O=S1(=O)CCC(NC(=S)N2CCCCC2)C1 (centres undefined) | > 4 mM (inactive)
113 | COc1ccc2cc3[n+](cc2c1OC)CCc1cc2c(cc1-3)OCO2 | > 4 mM (inactive)
114 | COc1cc2c(cc1OC)[C@@H]1C(=O)c3ccc(OC)c(CC=C(C)C)c3O[C@@H]1CO2 | > 4 mM (inactive)
115 | COc1ccc2c(c1)OCc1c-2oc2cc(OC)ccc12 | > 4 mM (inactive)
116 | C=CC(C1=CC(=O)C=CC1=O)c1ccccc1 (centres undefined) | > 4 mM (inactive)
117 | COc1ccccc1NC(=O)C1CCCCC1 | > 4 mM (inactive)
118 | CC(=O)Nc1ccc(CN2CCOCC2)cc1 | > 4 mM (inactive)
119 | O=c1[nH]c(O)c(C=NCc2cccs2)c(=O)[nH]1 | > 4 mM (inactive)
